How the values were obtained:
GP2D cells = test: Ras cellular assay, cell proliferation GP2D; type: cell-based
Summary of the method: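 Growth inhibition read by CellTiter-Glo luminescence roughly 5 days after compound addition, which followed overnight plating of G12D-mutant GP2D cells (e.g., 800 per well). Compounds were tested as a serial dilution (e.g., 9 points, 3-fold), with IC50 fitted by four-parameter model.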

SW620 cells = test: Ras cellular assay, cell proliferation SW620; type: cell-based; settings: Homo sapiens, SW-620
Text: (§1) For example, this assay can be also used to assess selective growth inhibition of a mutant Ras protein relative to a wildtype, or relative to a different mutant Ras protein.

K-Ras G12V = biological target: T1, K-Ras G12V (Homo sapiens, UniProt P01116, G12V); test: PPI-HTRF assay, K-Ras G12V / SOS1 interaction; type: biochemical; settings: HTRF, K-Ras G12V; read-out: PPI-HTRF-5 nM (K-Ras G12V IC50)
T1 construct: made in house; host or cells: E. coli, e.g. BL21 (DE3)
T1 sequence (P01116 1-188 isoform P01116-2 G12V): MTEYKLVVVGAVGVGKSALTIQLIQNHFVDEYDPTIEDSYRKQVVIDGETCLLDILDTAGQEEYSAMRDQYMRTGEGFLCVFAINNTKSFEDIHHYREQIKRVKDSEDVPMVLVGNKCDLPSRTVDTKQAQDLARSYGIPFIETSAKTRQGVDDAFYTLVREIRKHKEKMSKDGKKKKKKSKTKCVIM
Summary of the method: (§2)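 HTRF readout: 665/620 nm ratio (ex 337 nm) after ≥10 min incubation. Donor anti-GST-Eu(K) sits on GST-K-Ras (WT, G12D, G12V or G12S) and acceptor anti-6His-XL665 on His-hSOS1. Buffer ~5 mM HEPES pH 7.4, ~150 mM NaCl, ~1 mM DTT, 0.05% BSA, 0.0025% Igepal. Duplicate 6-point dilution, 10–0.01 μM, fitted to IC50.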

A549 cells = test: Ras cellular assay, cell proliferation A549; type: cell-based; settings: Homo sapiens
Description: as §1
A549 (ATCC CRL-185) and LS123 (ATCC CRL-255) cell lines comprise a G12S mutation and can be used to assess Ras cellular signaling in vitro, e.g., in response to treatment with a compound described herein. A549 culture medium is prepared with RPMI-1640 and 10% heat-inactivated FBS. LS123 culture medium is prepared with RPMI-1640 and 10% heat-inactivated FBS. A CellTiter-Glo (CTG) luminescent based assay (Promega) is used to assess growth of the cells, as a measurement of the ability of the compounds herein to inhibit Ras signaling in the cells. The cells (e.g., 800 per well) are seeded in their respective culture medium in standard tissue culture-treated 384-well format plates (Falcon #08-772-116) or ultra-low attachment surface 384-well format plates (S-Bio #MS-9384WZ). The day after plating, cells are treated with a dilution series (e.g., a 10 point, 3-fold dilution series) of the compounds herein (e.g., approximately 40 μL final volume per well). Cell viability can be monitored (e.g., approximately 6 days later) according to the manufacturer's recommended instructions, where CellTiter-Glo reagent is added (e.g., approximately 10 μL), vigorously mixed, covered, and placed on a plate shaker (e.g., approximately for 20 min) to ensure sufficient cell lysis prior to assessment of luminescent signal. The IC50 values are determined using the four parameter fit. The resulting IC50 value is a measurement of the ability of the test compound to reduce cell growth of Ras-driven cells (e.g., tumor cell lines) in vitro and/or in vivo.

wildtype K-Ras = biological target: T2, wildtype K-Ras (Homo sapiens, UniProt P01116); test: PPI-HTRF assay, wildtype K-Ras / SOS1 interaction; type: biochemical; settings: HTRF, K-Ras wt; read-out: PPI-HTRF-5 nM (K-Ras wt IC50)
T2 construct: made in house; host or cells: E. coli, e.g. BL21 (DE3)
T2 sequence (P01116 1-188 isoform P01116-2): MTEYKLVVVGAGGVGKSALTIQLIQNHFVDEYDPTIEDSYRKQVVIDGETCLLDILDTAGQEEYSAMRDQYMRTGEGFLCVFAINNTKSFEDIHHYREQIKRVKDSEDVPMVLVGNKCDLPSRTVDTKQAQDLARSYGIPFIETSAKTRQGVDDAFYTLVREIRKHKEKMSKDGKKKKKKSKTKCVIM
Summary of the method: as §2

K-Ras G12S = biological target: T3, K-Ras G12S (Homo sapiens, UniProt P01116, G12S); test: PPI-HTRF assay, K-Ras G12S / SOS1 interaction; type: biochemical; settings: read-out: PPI-HTRF-5 nM (K-Ras G12S IC50)
T3 construct: made in house; host or cells: E. coli, e.g. BL21 (DE3)
T3 sequence (P01116 1-188 isoform P01116-2 G12S): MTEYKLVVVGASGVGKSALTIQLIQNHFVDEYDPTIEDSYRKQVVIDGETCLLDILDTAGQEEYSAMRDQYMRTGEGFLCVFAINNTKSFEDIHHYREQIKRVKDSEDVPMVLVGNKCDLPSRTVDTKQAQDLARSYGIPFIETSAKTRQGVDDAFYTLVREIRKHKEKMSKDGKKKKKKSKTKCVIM
Summary of the method: as §2

K-Ras G12D = biological target: T4, K-Ras G12D (Homo sapiens, UniProt P01116, G12D); test: PPI-HTRF assay, K-Ras G12D / SOS1 interaction; type: biochemical; settings: HTRF, K-Ras G12D; read-out: PPI-HTRF-5 nM (K-Ras G12D IC50)
T4 construct: made in house; host or cells: E. coli, e.g. BL21 (DE3)
T4 sequence (P01116 1-188 isoform P01116-2 G12D): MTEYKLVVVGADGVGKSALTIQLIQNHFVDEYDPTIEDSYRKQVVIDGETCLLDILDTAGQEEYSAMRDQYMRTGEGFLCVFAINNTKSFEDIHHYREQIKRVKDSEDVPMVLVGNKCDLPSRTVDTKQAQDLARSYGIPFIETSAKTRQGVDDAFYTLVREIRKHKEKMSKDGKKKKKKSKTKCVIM
Summary of the method: as §2

N#Cc1c(N)sc2c(F)ccc(-c3c(Cl)c4c5c(nc(OC[C@@]67CCCN6C[C@H](F)C7)nc5c3F)N3CCC3CO4)c12 (stereo partly drawn) [compound 178, 2-amino-4-(6-chloro-4-fluoro-2-(((2R,7aS)-2-fluorotetrahydro-1H-pyrrolizin-7a(5H)-yl)methoxy)-8,8a,9,10-tetrahydroazeto[2′,1′:3,4][1,4]oxazepino [5,6,7-de]quinazolin-5-yl)-7-fluorobenzo[b]thiophene-3-carbonitrile]
IC50 (GP2D cells): < 5 µM
IC50 (SW620 cells): < 5 µM
IC50 (K-Ras G12V): < 5 µM
IC50 (A549 cells): < 5 µM
IC50 (wildtype K-Ras): < 5 µM
IC50 (K-Ras G12S): < 5 µM
IC50 (K-Ras G12D): < 5 µM

N#Cc1c(N)sc2c(F)ccc(-c3c(Cl)c4c5c(nc(OC[C@@]67CCCN6C[C@H](F)C7)nc5c3F)N3CCNCCC3CO4)c12 (stereo partly drawn) [compound 142, 2-amino-4-(6-chloro-4-fluoro-2-(((2R,7aS)-2-fluorotetrahydro-1H-pyrrolizin-7a(5H)-yl)methoxy)-8a,9,10,11,12,13-hexahydro-8H-[1,4]diazepino[7′,1′:3,4][1,4]oxazepino [5,6,7-de]quinazolin-5-yl)-7-fluorobenzo[b]thiophene-3-carbonitrile]
IC50 (GP2D cells): < 5 µM
IC50 (SW620 cells): < 5 µM
IC50 (K-Ras G12V): < 5 µM
IC50 (A549 cells): < 5 µM
IC50 (wildtype K-Ras): < 5 µM
IC50 (K-Ras G12S): < 5 µM
IC50 (K-Ras G12D): < 5 µM

N#Cc1c(N)sc2c(F)ccc(-c3c(Cl)c4c5c(nc(OCC67CCCN6C[C@H](F)C7)nc5c3F)N3CC(C#N)CCC3CO4)c12 (stereo partly drawn) [compound 150, 5-(2-amino-3-cyano-7-fluorobenzo[b]thiophen-4-yl)-6-chloro-4-fluoro-2-(((2R)-2-fluorotetrahydro-1H-pyrrolizin-7a(5H)-yl)methoxy)-8,8a,9,10,11,12-hexahydropyrido[2′,1′:3,4][1,4]oxazepino [5,6,7-de]quinazoline-11-carbonitrile]
IC50 (GP2D cells): < 5 µM
IC50 (SW620 cells): < 5 µM
IC50 (K-Ras G12V): < 5 µM
IC50 (A549 cells): < 5 µM
IC50 (wildtype K-Ras): < 5 µM
IC50 (K-Ras G12S): < 5 µM
IC50 (K-Ras G12D): < 5 µM

N#Cc1c(N)sc2c(F)ccc(-c3c(Cl)c4c5c(nc(OC[C@@]67CCCN6C[C@H](F)C7)nc5c3F)N3CCCC(O)C3CO4)c12 (stereo partly drawn) [compound 157, 2-amino-4-(6-chloro-4-fluoro-2-(((2R,7aS)-2-fluorotetrahydro-1H-pyrrolizin-7a(5H)-yl)methoxy)-9-hydroxy-8,8a,9,10,11,12-hexahydropyrido[2′,1′:3,4][1,4]oxazepino [5,6,7-de]quinazolin-5-yl)-7-fluorobenzo[b]thiophene-3-carbonitrile]
IC50 (GP2D cells): < 5 µM
IC50 (SW620 cells): < 5 µM
IC50 (K-Ras G12V): < 5 µM
IC50 (A549 cells): < 5 µM
IC50 (wildtype K-Ras): < 5 µM
IC50 (K-Ras G12S): < 5 µM
IC50 (K-Ras G12D): < 5 µM

N#Cc1c(N)sc2c(F)ccc(-c3c(Cl)c4c5c(nc(OCC67CCCN6C[C@H](F)C7)nc5c3F)N3CCCC[C@H]3CO4)c12 (stereo partly drawn) [compound 168, 2-amino-4-((5aS)-3-chloro-1-fluoro-12-(((2R,7aS)-2-fluorohexahydro-1H-pyrrolizin-7a-yl)methoxy)-5,5a,6,7,8,9-hexahydropyrido[2′,1′:3,4][1,4]oxazepino[5,6,7-de]quinazolin-2-yl)-7-fluorobenzo[b]thiophene-3-carbonitrile]
IC50 (GP2D cells): < 5 µM
IC50 (SW620 cells): < 5 µM
IC50 (K-Ras G12V): < 5 µM
IC50 (A549 cells): < 5 µM
IC50 (wildtype K-Ras): < 5 µM
IC50 (K-Ras G12S): < 5 µM
IC50 (K-Ras G12D): < 5 µM

N#Cc1c(N)sc2c(F)ccc(-c3c(Cl)c4c5c(nc(OC[C@@]67CCCN6C[C@H](F)C7)nc5c3F)N3CCN(CC(F)F)CCC3CO4)c12 (stereo partly drawn) [compound 170, 2-amino-4-(6-chloro-11-(2,2-difluoroethyl)-4-fluoro-2-(((2R,7aS)-2-fluorotetrahydro-1H-pyrrolizin-7a(5H)-yl)methoxy)-8a,9,10,11,12,13-hexahydro-8H-[1,4]diazepino[7′,1′:3,4][1,4]oxazepino [5,6,7-de]quinazolin-5-yl)-7-fluorobenzo[b]thiophene-3-carbonitrile]
IC50 (GP2D cells): < 5 µM
IC50 (SW620 cells): < 5 µM
IC50 (K-Ras G12V): < 5 µM
IC50 (A549 cells): < 5 µM
IC50 (wildtype K-Ras): < 5 µM
IC50 (K-Ras G12S): < 5 µM
IC50 (K-Ras G12D): < 5 µM

N#Cc1c(N)sc2c(F)ccc(-c3c(Cl)c4c5c(nc(OC[C@@]67CCCN6C[C@H](F)C7)nc5c3F)N3Cc5ccnn5CCC3CCO4)c12 (single isomer, unassigned) [compound 153]
IC50 (GP2D cells): < 5 µM
IC50 (SW620 cells): < 5 µM
IC50 (K-Ras G12V): < 5 µM
IC50 (A549 cells): < 5 µM
IC50 (wildtype K-Ras): < 5 µM
IC50 (K-Ras G12S): < 5 µM
IC50 (K-Ras G12D): < 5 µM

N#Cc1c(N)sc2c(F)ccc(-c3c(Cl)c4c5c(nc(OC[C@@]67CCCN6C[C@H](F)C7)nc5c3F)N3CCC(C#N)CC3CO4)c12 (stereo partly drawn) [compound 205, 5-(2-amino-3-cyano-7-fluorobenzo[b]thiophen-4-yl)-6-chloro-4-fluoro-2-(((2R,7aS)-2-fluorotetrahydro-1H-pyrrolizin-7a(5H)-yl)methoxy)-8,8a,9,10,11,12-hexahydropyrido[2′,1′:3,4][1,4]oxazepino [5,6,7-de]quinazoline-10-carbonitrile]
IC50 (GP2D cells): < 5 µM
IC50 (SW620 cells): < 5 µM
IC50 (K-Ras G12V): < 5 µM
IC50 (A549 cells): < 5 µM
IC50 (wildtype K-Ras): < 5 µM
IC50 (K-Ras G12S): < 5 µM
IC50 (K-Ras G12D): < 5 µM

COCC1CCC2COc3c(Cl)c(-c4ccc(F)c5sc(N)c(C#N)c45)c(F)c4nc(OC[C@@]56CCCN5C[C@H](F)C6)nc(c34)N12 (stereo partly drawn) [compound 138, 2-amino-4-(6-chloro-4-fluoro-2-(((2R,7aS)-2-fluorotetrahydro-1H-pyrrolizin-7a(5H)-yl)methoxy)-11-(methoxymethyl)-8a,9,10,11-tetrahydro-8H-pyrrolo[2′,1′:3,4][1,4]oxazepino[5,6,7-de]quinazolin-5-yl)-7-fluorobenzo[b]thiophene-3-carbonitrile]
IC50 (GP2D cells): < 5 µM
IC50 (SW620 cells): < 5 µM
IC50 (K-Ras G12V): < 5 µM
IC50 (A549 cells): < 5 µM
IC50 (wildtype K-Ras): < 5 µM
IC50 (K-Ras G12S): < 5 µM
IC50 (K-Ras G12D): < 5 µM

N#CCC1CN2c3nc(OC[C@@]45CCCN4C[C@H](F)C5)nc4c(F)c(-c5ccc(F)c6sc(N)c(C#N)c56)c(Cl)c(c34)OCCC12 (stereo partly drawn) [compound 114, 2-amino-4-(9-chloro-1-(cyanomethyl)-7-fluoro-5-(((2R,7aS)-2-fluorotetrahydro-1H-pyrrolizin-7a(5H)-yl)methoxy)-1,11,12,12a-tetrahydro-2H-azeto[1′,2′:5,6][1,5]oxazocino[4,3,2-de]quinazolin-8-yl)-7-fluorobenzo[b]thiophene-3-carbonitrile]
IC50 (GP2D cells): < 5 µM
IC50 (SW620 cells): < 5 µM
IC50 (K-Ras G12V): < 5 µM
IC50 (A549 cells): < 5 µM
IC50 (wildtype K-Ras): < 5 µM
IC50 (K-Ras G12S): < 5 µM
IC50 (K-Ras G12D): < 5 µM

CC(=O)N1CC2Oc3c(Cl)c(-c4ccc(F)c5sc(N)c(C#N)c45)c(F)c4nc(OC[C@@]56CCCN5C[C@H](F)C6)nc(c34)N(C)C2C1 (stereo partly drawn) [compound 172, 4-(9-acetyl-6-chloro-4-fluoro-2-(((2R,7aS)-2-fluorotetrahydro-1H-pyrrolizin-7a(5H)-yl)methoxy)-11-methyl-7a,8,9,10,10a,11-hexahydropyrrolo[3′,4′:2,3][1,4]oxazepino [5,6,7-de]quinazolin-5-yl)-2-amino-7-fluorobenzo[b]thiophene-3-carbonitrile]
IC50 (GP2D cells): > 5 µM
IC50 (SW620 cells): > 5 µM
IC50 (K-Ras G12V): < 5 µM
IC50 (A549 cells): > 5 µM
IC50 (wildtype K-Ras): < 5 µM
IC50 (K-Ras G12S): < 5 µM
IC50 (K-Ras G12D): < 5 µM
